What was measured:
[1] = test system: rat peritoneal mast cells; test: Degranulation inhibiting activity in rat peritoneal mast cells (β-hexosaminidase release); format: cell-based; details: 10 μM compound; co-stimulation with 3 μM LysoPS and 100 ng/ml DNP-BSA = 100%, spontaneous degranulation = 0%
Procedure: Ice-cooled mast cell medium (hereunder called MCM: 150 mM NaCl, 3.7 mM KCl, 3.0 mM NaH2PO4, 3.5 mM KH2PO4, 5.6 mM (D)-Glucose, 0.1% bovine serum albumin (BSA), 0.1% gelatin, 10 U/ml heparin, pH 6.8) was injected intraperitoneally into rats, about 40 ml per rat, the abdomens were massaged for about 2 minutes and then opened along the median line, and ascites was collected. The collected ascites were filtered with a cell strainer (Becton Dickinson) and centrifuged for 7 minutes at 50×g, and the precipitated cells were suspended in MCM and then centrifuged again for 7 minutes at 50×g. The precipitated cells were suspended in 5 ml of MCM, layered over 2 ml of 32% (w/v) BSA solution (dissolved in 0.9% NaCL), and left for 20 minutes at room temperature. This was centrifuged for 15 minutes at room temperature at 300×g, the cells between the MCM and BSA solution were discarded, and the precipitated cells were suspended in MCM and washed twice by being centrifuged for 5 minutes at 300×g. The precipitated cells were suspended in assay buffer (150 mM NaCl, 3.7 mM KCl, 3.0 mM NaH2PO4, 3.5 mM KH2PO4, 0.9 mM CaCl2, 5.6 mM (D)-Glucose, 0.01% BSA, pH 6.8), and these cells were used in the following test.
RPMC cells suspended in assay buffer were passively sensitized by adding 10 μg/ml of monoclonal mouse anti-DNP-IgE (Seikagaku) and leaving them for 30 minutes on ice. After 5 minutes of centrifugation at 300×g, the precipitated cells were washed 3 times with assay buffer. The RPMC cells suspended in assay buffer were dispensed on 96-well V-bottom plates, 2×10^4 cells per well. The assay was performed with n=3 under each set of reaction conditions. The plates were maintained for 5 minutes at 37° C., the test compound was added, and after 15 minutes lysoPS (Sigma) was added to a final concentration of 3 μM and DNP-BSA (Calbiochem) to a final concentration of 100 ng/ml for a final capacity of 200 and left on a water bath at 37° C. After 20 minutes, the plate was ice cooled to stop RPMC activation, followed by 5 minutes of centrifugation at 300×g, and β-hexosaminidase activity in the supernatant was measured using 4-methylumbelliferyl-2-acetamido-2-deoxy-β-D-glucopyranoside (Wako Pure Chemical) degradation as the indicator.

human GPR34 = human GPR34 (Homo sapiens, UniProt Q9UPC5); test: Human GPR34 antagonist activity indicated by changes in intracellular calcium concentration (FLIPR); format: cell-based; parameters: expressed in transfected cells; host or cells: CHO cells (human GPR34CHO line) stably transfected with pCR3.1 human lung Gα16; details: CHO cells expressing human GPR34/Gα16, against 2 μM lysoPS final concentration, Fluo-3AM
Sequence of human GPR34 (Q9UPC5 whole entry): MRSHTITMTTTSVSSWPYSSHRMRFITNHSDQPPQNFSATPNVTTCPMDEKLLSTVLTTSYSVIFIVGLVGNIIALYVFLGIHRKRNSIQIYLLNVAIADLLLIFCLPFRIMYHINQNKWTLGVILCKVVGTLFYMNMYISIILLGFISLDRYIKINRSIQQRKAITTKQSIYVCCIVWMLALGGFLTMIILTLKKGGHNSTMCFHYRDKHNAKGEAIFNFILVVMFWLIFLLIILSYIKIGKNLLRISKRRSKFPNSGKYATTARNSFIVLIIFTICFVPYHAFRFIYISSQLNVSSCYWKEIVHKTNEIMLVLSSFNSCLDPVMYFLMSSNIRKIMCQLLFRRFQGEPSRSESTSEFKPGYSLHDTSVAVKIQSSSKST
Procedure: CHO cells expressing human GPR34/Gα were diluted to 3×10^4/100 μl in cell culture medium [nucleic acid-free Minimum Essential Alpha Medium (Invitrogen) containing 10% dialyzed fetal bovine serum (Invitrogen) 0.5 mg/ml Geneticin (Invitrogen), penicillin and streptomycin (Invitrogen)], dispensed 100 μl per well into a Black walled 96-well plate (Costar), and cultured overnight in a CO2 incubator. Changes in intracellular calcium concentration were measured with a FLIPR (Molecular Device) by the methods described below.
50 μg of Fluo-3AM (Dojindo) was dissolved in 21 μl of DMSO (Dojindo), an equal amount of 20% pluronic acid (Molecular Probes) was added and mixed, and this was added to 10.6 ml of assay buffer [prepared by adding 20 ml of 1 M HEPES (pH 7.4, Dojindo) to HBSS (Invitrogen), and then adding 10 ml of a solution obtained by dissolving 710 mg of Probenecid (Sigma) in 5 ml of 1 N NaOH and then adding and mixing 5 ml of the HBSS/HEPES solution)] with 105 μl of fetal bovine serum added thereto to prepare a fluorescent dye solution. The medium was removed from the cell plate, 100 μl per well of the fluorescent dye solution was immediately poured in, and the cells were cultured for 1 hour in a CO2 incubator to incorporate the fluorescent dye into the cells. After culture, the cells were washed with the aforementioned assay buffer. The compound was dissolved in DMSO (Wako Pure Chemical), diluted with DMSO as necessary, added to the aforementioned assay buffer to the target concentration and poured into the plate. To measure antagonist activity, 8 μM lysophosphatidyl serine (lysoPS, Alexis) solution (2 μM final concentration during reaction) was poured into the plate, which was set in the FLIPR. Following these preliminaries, the agonist effect was measured in the FLIPR by measuring changes in intracellular calcium concentration up to 180 seconds after addition of the sample, and after 200 seconds lysoPS was added and the antagonist effect was measured. In the case of the agonist effect, the EC50 value of the added compound was calculated from the dose reaction curve using changes in fluorescent strength from 0 to 180 seconds after the start of the reaction. In the case of the antagonist effect, the IC50 was calculated from the dose reaction curve using changes in maximum fluorescent strength after 200 to 380 seconds of reaction time. The data was analyzed using “GraphPad PRISM4”.

Compound	degranulation of rat peritoneal mast cells due to LysoPS and DNP-BSA stimulation [1]	melting point	IC50 (human GPR34)
CCc1ccc(COc2ccc(C[C@H](NC(=O)c3cn4ccc(-c5ccc(Cl)cc5)cc4n3)C(=O)O)cc2)cc1 [Example E65, N-{[7-(4-Chlorophenyl)imidazo[1,2-a]pyridin-2-yl]carbonyl}-O-(4-ethylbenzyl) tyrosine]	8.8%	245 °C	≤ 1000 nM
CCCOc1ccc(-c2ccc3sc(C(=O)N[C@@H](Cc4ccc(OCc5ccc(F)cc5)cc4)C(=O)O)cc3c2)cc1 [Example C131, O-(4-Fluorobenzyl)-N-{[5-(4-propoxyphenyl)-1-benzothiophene-2-yl]carbonyl}tyrosine]	10.2%	211 to 212 °C	≤ 1000 nM
Cc1c(C(=O)N[C@@H](Cc2ccc(OCc3ccccc3)cc2)C(=O)O)oc2cc(-c3ccc(Cl)cc3)ccc12 [Example C115, O-Benzyl-N-{[6-(4-chlorophenyl)-3-methyl-1-benzofuran-2-yl]carbonyl}-L-tyrosine]	20%	143 to 144 °C	–
COC(=O)CC(=O)NC1(C(=O)O)Cc2ccc(-c3ccc(Cl)cc3)cc2C1 (stereo not drawn) [Example B13]	10%	–	–
O=C(NC(Cc1ccc(OCc2ccccc2)cc1)C(=O)O)c1cn2cc(CCc3ccccc3)ccc2n1 (stereo not drawn) [Example E57, O-Benzyl-N-{[6-(2-phenethyl)imidazo[1,2-a]pyridin-2-yl]carbonyl}tyrosine]	8.3%	239 °C (dec.)	–
O=C(N[C@@H](Cc1ccc(OCc2ccccc2)cc1)C(=O)O)c1cc2cc(-c3ccc(Cl)cc3)ccc2s1 [Example C123, O-Benzyl-N-{[5-(4-chlorophenyl)-1-benzothiophene-2-yl]carbonyl}tyrosine]	–	206 to 207 °C	≤ 1000 nM
O=C(N[C@@H](Cc1ccc(OCc2ccccc2)cc1)C(=O)O)c1cn2cc(-c3ccccc3F)ccc2n1 [Example E19, O-Benzyl-N-{[6-(2-fluorophenyl)imidazo[1,2-a]pyridin-2-yl]carbonyl}tyrosine]	–	238 °C	≤ 1000 nM
O=C(Cc1ccc(OCc2ccccc2)cc1)NC1(C(=O)O)Cc2ccc(-c3ccc(Cl)cc3)cc2C1 (stereo not drawn) [Example B174, 2-({[4-(Benzyloxy)phenyl]acetyl}amino)-5-(4-chlorophenyl)indan-2-carboxylic acid]	8%	–	–
O=C(N[C@@H](Cc1ccc(OCc2ccccc2)cc1)C(=O)O)c1cn2cc(-c3ccccc3Cl)ccc2n1 [Example E24, O-Benzyl-N-{[6-(2-chlorophenyl)imidazo[1,2-a]pyridin-2-yl]carbonyl}tyrosine]	–	228 °C	≤ 1000 nM
Cc1c(-c2ccc(Cl)cc2)ccc2nc(C(=O)N[C@@H](Cc3ccc(OCc4ccccc4)cc3)C(=O)O)cn12 [Example E26, O-Benzyl-N-{[6-(4-chlorophenyl)-5-methylimidazo[1,2-a]pyridin-2-yl]carbonyl}tyrosine]	–	263 to 264 °C	≤ 1000 nM
O=C(N[C@@H](Cc1ccc(OCc2ccccc2)cc1)C(=O)O)c1cc2ccc(-c3ccc(Cl)cc3)cc2s1 [Example C122, O-Benzyl-N-{[6-(4-chlorophenyl)-1-benzothiophene-2-yl]carbonyl}tyrosine]	–	237 to 239 °C	≤ 1000 nM
O=C(N[C@@H](Cc1ccc(OCc2ccccc2)cc1)C(=O)O)c1cc2nccc(-c3ccc(Cl)cc3)n2n1 [Example E16, O-Benzyl-N-{[7-(4-chlorophenyl)pyrazolo[1,5-a]pyrimidin-2-yl]carbonyl}tyrosine]	–	102 to 103 °C	≤ 1000 nM
O=C(N[C@@H](Cc1ccc(OCc2ccccc2)cc1)C(=O)O)c1cc2ccc(-c3ccc(Cl)cc3)cc2[nH]1 [Example C163, O-Benzyl-N-{[6-(4-chlorophenyl)-1H-indol-2-yl]carbonyl}tyrosine]	–	202 to 204 °C	≤ 1000 nM
Cn1c(C(=O)N[C@@H](Cc2ccc(OCc3ccccc3)cc2)C(=O)O)cc2ccc(-c3ccc(Cl)cc3)cc21 [Example C164, O-Benzyl-N-{[6-(4-chlorophenyl)-1-methyl-1H-indole-2-yl]carbonyl}tyrosine]	–	205 to 206 °C	≤ 1000 nM
Cn1c(C(=O)N[C@@H](Cc2ccc(OCc3ccccc3)cc2)C(=O)O)cc2cc(-c3ccc(Cl)cc3)ccc21 [Example C166, O-Benzyl-N-{[5-(4-chlorophenyl)-1-methyl-1H-indol-2-yl]carbonyl}tyrosine]	–	238 to 239 °C	≤ 1000 nM
O=C(N[C@@H](Cc1ccc(OCc2cccc(F)c2)cc1)C(=O)O)c1cn2ccc(-c3ccc(Cl)cc3)cc2n1 [Example E48, N-{[7-(4-Chlorophenyl)imidazo[1,2-a]pyridin-2-yl]carbonyl}-O-(3-fluorobenzyl)tyrosine]	–	248 to 250 °C	≤ 1000 nM
O=C(N[C@@H](Cc1ccc(OCc2ccccc2)cc1)C(=O)O)c1nc2ccc(-c3ccc(Cl)cc3)cc2[nH]1 [Example C167, O-Benzyl-N-{[6-(4-chlorophenyl)-1H-benzimidazol-2-yl]carbonyl}tyrosine]	–	260 to 261 °C	≤ 1000 nM
O=C(N[C@@H](Cc1ccc(OCc2ccccc2)cc1)C(=O)O)c1cn2cc(/C=C/c3ccc(Cl)cc3)ccc2n1 [Example E41, O-Benzyl-N-({6-[(E)-2-(4-chlorophenyl)ethenyl]imidazo[1,2-a]pyridin-2-yl}carbonyl)tyrosine]	–	267 to 270 °C	≤ 1000 nM
Nc1c(C(=O)N[C@@H](Cc2ccc(OCc3ccccc3)cc2)C(=O)O)oc2cc(-c3ccc(Cl)cc3)ccc12 [Example C147, N-{[3-Amino-6-(4-chlorophenyl)-1-benzofuran-2-yl]carbonyl}-O-benzyltyrosine]	–	250 °C (dec.)	≤ 1000 nM
N#Cc1ccc(COc2ccc(C[C@H](NC(=O)c3cn4ccc(-c5ccc(Cl)cc5)cc4n3)C(=O)O)cc2)cc1 [Example E64, N-{[7-(4-Chlorophenyl)imidazo[1,2-a]pyridin-2-yl]carbonyl}-O-(4-cyanobenzyl)tyrosine]	–	263 °C	≤ 1000 nM
O=C(N[C@@H](Cc1ccc(OCc2cccc(F)c2)cc1)C(=O)O)c1cc2ccc(-c3ccc(Cl)cc3)cc2o1 [Example C153, N-{[6-(4-Chlorophenyl)-1-benzofuran-2-yl]carbonyl}-O-(3-fluorobenzyl)tyrosine]	–	162 to 163 °C	≤ 1000 nM
